The nature of data set [1]: Aerobic dissolution activity, visual observation in open glasses of water. Format: physicochemical. Set-up: White grainy deposit / White rhombic froth / Reactivity/floating / Calcium settlements / Meniscus (white): scale not given here. As to conditions: for Calcium settlements / Evaporation / Meniscus (white) / Particles dissolved / Reactivity/floating / White grainy deposit / White rhombic froth: open air; for pH: open air water solutions. Here is the method: Calcium cyanamide fines, homogeneous calcium cyanamide granules, heterogeneous calcium cyanamide/urea granules, calcium cyanamide granules, and urea were added to equal amounts of water in separate glasses and observed over time. Table 12 is a summary of those visual observations and highlights the vast differences between the aerobic dissolution properties and the chemical reactions over time of open air water solutions of CaNCN granules (1), CaNCN fines (2), homogeneous CaNCN/urea granules formed by melting together CaNCN fines and urea (3), heterogeneous CaNCN/urea granules with a calcium cyanamide core and a urea shell (4), and urea (5).

The next data set deals with corn. Description: Crop yield after cornfield application. Format: in vivo. As to conditions: nitrogen 160 lbs/acre for ammonia. The text has this:
Nitrate leaching after cornfield applications of 0.5% and 1% heterogeneous calcium cyanamide core/urea shell granules was also followed.

The test system of data set [2] is microscopic eelworms (nematodes). Description: Inventor Study, WSU: nematode reduction in vitro. The text has this:
For comparison, results of some prior art studies using dry CaNCN application, liquid molecular cyanamide applications, and the results of an experiment using dicyandiamide are also included in Table 10.

For data set [3] the test system is unchanged. To be noted: not hydrolyzed, cited from earlier work.
In a further data set the test system is arginine production. As to conditions: cited from earlier work; for % Relative Arginine Increase: published data, CaNO3 as baseline.
The next data set deals with Verticillium. As to conditions: cited from earlier work.
Another data set concerns Coliform. Description: Coliform numbers in parlor wash manure with 0.2% CaNCN. Format: cell-based. As to conditions: below about 0.2% by weight in manure, within 24-120 hrs.
The next data set relates to Phytophthora. To be noted: cited from earlier work.
Data set [4] relates to microscopic eelworms (nematodes). As to conditions: 600-1200 lbs/acre, not hydrolyzed, Field Soil, dry; cited from earlier work.
A further data set deals with weeds. As to conditions: cited from earlier work.
The test system of another data set is lettuce seed. Kind of data set: Seed emergence in band drenched lettuce and broccoli plots. Format: in vivo. As to conditions: aqueous composition of calcium cyanamide alone as a drench. On the procedure:
Yet another test was conducted on lettuce and broccoli plots. […] The rates expressed relevant to strawberry bands were 8 lbs and 16 lbs of nitrogen per acre. […] However, where the drench was allowed to dry for several days before sprinkling, the lettuce seed emergence was reduced 100%. […]

The conditions of data set [5]: about 25° C.; cited from earlier work.
In data set [6] the test system is Meloidogyne chitwoodi J2 larvae. Description: Meloidogyne chitwoodi J2 larvae killed after application in irrigation water. Format: in vivo. The text has this: This example was done under consultation with Washington State University. Agricultural plots were identified in Washington State.
Data set [7] has as its system microscopic eelworms (nematodes). To be noted: 100 lbs/acre, hydrolyzed + urease, In vitro; cited from earlier work.
Data set [8] has as its system microscopic soil eelworms (nematodes). Kind of data set: Strawberry bed drip irrigation test against methyl bromide, soil eelworms at 12 inch depth. Format: in vivo. To be noted: methyl bromide in pre-wetted beds. The source says:
As a result of the before mentioned strawberry bed weed responses, the 70/30 composition was compared directly with methyl bromide (MB) during the California Strawberry Commission's annual testing for alternatives to the ozone negative pesticide, which is scheduled to be 70% banned by 2003. Our chosen objective was to replace pre-banded “slow release” nitrogen with stabilized urea/calcium cyanamide compositions at a similar cost per acre and see if we could attain reduction of weeds and diseases similar to methyl bromide.
The urea/calcium cyanamide composition was applied to pre-wetted and preformed beds through drip irrigation tubes, typically 2 of which are laid inside of where two rows of berry plants will be planted on the outside bed edges. Applications of 100 lbs/acre were compared where the calcium cyanamide composition was applied over 1 hour and 2 hour periods to vary the depth and width of its distribution.
Soil samples, taken at a depth of 12″ in bed centers, were sent for analysis by the Commission. […] It is assumed that the pre-wetting of soil required for bed shaping, caused restricted movement of the methyl bromide gas through the soil.

Where [9] appears, read: dry incorporated, 1,000 lbs./acre.
[10] abbreviates: shank injected and tarped, 350 lbs/acre.

Where two headings read alike, the source gives them in different places.

Consider `[Ca+2].[N-]=C=[N-]` [(1)Granules, calcium cyanamide], for which, in data set [1] (1 hour), the Calcium settlements came to 0, the Evaporation is 0, the “Meniscus (white)” value was determined as 0 and the Particles dissolved was 0. In [1] (1 hour), the Reactivity/floating stood at 0, the White grainy deposit is on record as 0 and the White rhombic froth is 0. Moreover, in [1] (24 hours), the Calcium settlements is 0, the Evaporation is recorded as 0, the “Meniscus (white)” value was 0 and the Particles dissolved is 2. Moreover, in [1] (24 hours), the Reactivity/floating came out at 2, the White grainy deposit came to 0 and the White rhombic froth was found to be 0. In [1] (30 days), the Calcium settlements was found to be 1, the Evaporation is on record as 5, the “Meniscus (white)” value came out at 1 and the Particles dissolved is listed as 2. Further, in [1] (30 days), the Reactivity/floating was found to be 4, the White grainy deposit was 2 and the White rhombic froth is 0. The “pH” value in [1] is on record as “(1)Granules(12)”.
`[Ca+2].[N-]=C=[N-]` [(2)Fines, calcium cyanamide]: in [1] (1 hour), the Calcium settlements is listed as 0, the Evaporation was 0, the “Meniscus (white)” value is 0 and the Particles dissolved is given as 2. Moreover, in data set [1] (1 hour), the Reactivity/floating was determined as 1, the White grainy deposit amounted to 0 and the White rhombic froth is given as 0. In data set [1] (24 hours), the Calcium settlements is given as 10, the Evaporation stood at 0, the “Meniscus (white)” value was determined as 8 and the Particles dissolved was 7. In [1] (24 hours), the Reactivity/floating was 10, the White grainy deposit is given as 0 and the White rhombic froth amounted to 0. For the same compound, in data set [1] (30 days), the Calcium settlements was found to be 10, the Evaporation stood at 5, the “Meniscus (white)” value is reported as 9 and the Particles dissolved is on record as 8. In addition, in [1] (30 days), the Reactivity/floating is recorded as 10, the White grainy deposit was found to be 6 and the White rhombic froth was found to be 0. The “pH” value in data set [1] is on record as “(2)Fines(12)”.
Regarding `N` [Ammonia], the Yield stood at 180 bushel/acre with corn (Field 1, 120 lbs/acre for granules) and 177 bushel/acre in the data set with corn (Field 2, 120 lbs/acre for granule).
As for `[Ca+2].[N-]=C=[N-]` [CaNCN, calcium cyanamide], the “Nematode Reduction” value in data set [2] (9 lbs/acre in distilled water, hydrolyzed, pH = 12.6, In vitro) was 100%; in [2] (29 lbs/acre in tap water, hydrolyzed, pH = 10, In vitro), 0%; in [3] (1200-2400 equiv. lbs/acre, Wet pot soil), 41-66%; in data set [3] (1200-2400 lbs/acre, Dry), 4-8%; in data set [3] (1200-2400 lbs/acre, Wet), 42-54%; in data set [4], 0%. The “% Relative Arginine Increase” value in the data set on arginine production is given as 639%. Moreover, the “reduction of Verticillium” value with Verticillium (setting [9]) was 8%. Besides, in the data set with Coliform, the “reductions in coliform bacteria” value is recorded as 99.999%. In the data set on Phytophthora (setting [9]), the “reduction of Phytophthora” value is given as 0%. Moreover, the weeds reduced with weeds (dry surface incorporation of 1000 lbs/acre followed by 0.5 acre inch sprinkler water) is 95%. Besides, the “lettuce seed emergence reductions” value with lettuce seed (5 lbs CaNCN N/acre) was found to be 85%; with lettuce seed (10 lbs CaNCN N/acre) it was 100%.
Turning to `O=[N+]([O-])[O-].O=[N+]([O-])[O-].[Ca+2]` [CaNO3-baseline, calcium nitrate], in the data set with arginine production, the “% Relative Arginine Increase” value is reported as 0%.
Take `N#CN=C(N)N` [Dicyan-Diamide, dicyandiamide, reference compound]: the “Nematode Reduction” value in data set [2] (102 lbs/acre in distilled water, pH = 8, In vitro) amounted to 0%.
Regarding `N#CN` [H2NCN liquid, molecular cyanamide], the acid dissociation constant result in data set [5] was “about 5.42×10^−11”. In addition, in data set [3] (112 lbs/acre, In vitro), the “Nematode Reduction” value was 100%. The “stimulation of arginine production relative to urea” value with arginine production (in plants) is reported as 20 times.
For `[Na+].[OH-]` [NaOH, sodium hydroxide], in [2] (35 lbs/acre in tap water, pH = 10, In vitro), the “Nematode Reduction” value worked out at 99%. For the same compound, the “Final pH” value in data set [6] (35 lbs/acre at 1/2 inch depth) was 10.6; in data set [6] (70 lbs/acre at 1/2 inch depth), 11.4; in [6] (105 lbs/acre at 1/2 inch depth) it was 11.7. In addition, the “J2 nema - % killed” value in data set [6] (35 lbs/acre at 1/2 inch depth) worked out at 98.6%; in data set [6] (70 lbs/acre at 1/2 inch depth) it was 100%; in data set [6] (105 lbs/acre at 1/2 inch depth) it was 100%.
`NC(N)=O` [Urea, urea, reference compound]: the “% Relative Arginine Increase” value in the data set with arginine production is reported as 69%. For the same compound, in [1] (1 hour), the Calcium settlements worked out at 0, the Evaporation worked out at 0, the “Meniscus (white)” value was found to be 0 and the Particles dissolved was determined as 0. Besides, in [1] (1 hour), the Reactivity/floating is reported as 0, the White grainy deposit worked out at 0 and the White rhombic froth turned out to be 0. Further, in [1] (24 hours), the Calcium settlements turned out to be 0, the Evaporation came to 0, the “Meniscus (white)” value amounted to 0 and the Particles dissolved turned out to be 9. Also, in data set [1] (24 hours), the Reactivity/floating amounted to 0, the White grainy deposit is recorded as 0 and the White rhombic froth was found to be 0. Also, in [1] (30 days), the Calcium settlements was 0, the Evaporation was 4, the “Meniscus (white)” value is 0 and the Particles dissolved came out at 10. In data set [1] (30 days), the Reactivity/floating turned out to be 0, the White grainy deposit is 0 and the White rhombic froth stood at 0. Moreover, the “pH” value in [1] is on record as “(5)Urea(8)”. Also, the “Nematode Reduction” value in [7] is given as 100%.
For the compound `CBr` [methyl bromide, reference compound], the “reduction of Verticillium” value in the data set on Verticillium (setting [10]) is listed as 73%. In data set [8], the “reduction of microscopic soil eelworms (nematodes)” value was “completely ineffective”. Further, the “reduction of Phytophthora” value with Phytophthora (setting [10]) is on record as 100%. For the same compound, the weeds reduced with weeds (shank injected followed by tarping, 350 lbs/acre) is on record as 85%.

The values above are taken from patent US7785388B2, “Method for producing stabilized nitrogen compositions” (priority 1999, dated 2010).
